Laboratory results from US8937155B2 (priority 2010, dated 2015).
Converted amounts (≈) assume the structure as drawn. “Also recorded” adds a separate entry of the source. Ends that are not written are not given here. Peptide text beside a SMILES is read from it.

Columns and labels:
[1] = full mouse serum
Procedure: (§2) The serum stabilities of all peptides were determined in pure and 25% (v/v) aqueous pooled mouse serum (PAA Laboratories GmbH, Pasching, Austria) (Hoffmann R, Vasko M, & Otvos L. Serum stability of phosphopeptides. Analytica Chimica Acta 352: 319-25, 1997). Peptides were dissolved in serum at a final concentration of 75 μg/mL and incubated at 37° C. Aliquots taken in triplicates after 0, 30, 60, 120 and 240 min were precipitated by addition of trichloroacetic acid to a final concentration of 3% (v/v). After 10 minutes on ice, the samples were centrifuged, the supernatant neutralized with sodium hydroxide solution (1 mol/L) and stored at −20° C. The samples were analyzed on the analytical Jupiter C18-column using a linear aqueous acetonitrile or methanol gradient containing 0.1% (v/v) TFA. The metabolites were identified by MALDI-TOF-MS.

E. coli DSM 10233 = assay type: cell-based, Escherichia coli; conditions: DSM 10233, 2 h
Procedure: (§1) Minimal inhibitory concentrations were determined in triplicates by a liquid broth microdilution assay in sterile 96-well plates (Greiner Bio-One GmbH, Frickenhausen, Germany) using a total volume of 100 μL per well (Amsterdam, D. Susceptibility testing of antimicrobials in liquid media in Antibiotics in laboratory medicine (ed. Lorian, V.) 52-111 (Lippincott Williams & Wilkins, Baltimore, 1996)). Aqueous peptide solutions (1 mg/mL) were serially two-fold diluted in 1% tryptic soy broth (TSB). A typical dilution series ranged from 128 μg/mL to 0.5 μg/mL in eight steps. Overnight cultures of bacteria were diluted with 1% TSB to 1.5×10^7 cells/mL (Klebsiella pneumoniae DSM 681, Escherichia coli BL21AI and DSM 10233) and 4×10^7 cells/mL (Micrococcus luteus ATCC 10240). Fifty μL of these solutions were added to each well gaining a starting cell concentration of 7.5×10^5 cells/well and 2×10^6 cells/well, respectively. […]

in vitro [2] = conditions: for stability relative to the original oncocin sequence: bacterial lysate of E. coli BL21 AI; for half-life at 150 μg/mL: pH 7.4
Procedure: Bacteria (E. coli BL21 AI) were cultured over night at 37° C. in nutrient broth (Carl Roth GmbH & Co. KG, Karlsruhe, Germany). This suspension was centrifuged (5000 rpm, 4° C.) in a AVANTI® J=20-XP centrifuge using a JLA-10500 rotor (Beckman coulter, Fullerton, USA). The pellet was washed with phosphate buffered saline (PBS, 8.7 mmol/L Na2HPO4, 1.2 mmol/L KH2PO4, 150 mmol/L NaCl, pH 7.4) and centrifuged in an ALLEGRA® 21 R centrifuge (Beckman Coulter, 3000 rpm, 4° C., 20 min). The pellet was resuspended in PBS (60 mg/mL) and lysed on ice using ultra sonic (2×2 min with 2 s on/2 s off) applied via micro tip (750 W, 40% amplitude; Fisher Biobiock Scientific, Illkirch, France). One mL aliquots were centrifuged (15400 rpm, 20 min, 4° C.) and the supernatant was stored at −80′C.
The peptide concentration was determined with a Bradford protein assay (Bradford M M. Rapid and Sensitive Method for Quantitation of Microgram Quantities of Protein Utilizing Principle of Protein-Dye Binding. Analytical Biochemistry 72: 248-54, 1976). Briefly, 0.01% (w/v) Coomassie brilliant blue G250 was dissolved in 5% aqueous ethanol containing 8.5% orthophosphoric (Bradford reagent). The mixture was incubated first at 60° C. for 1 h and then at room temperature for 12 h. After filtration 200 μl of the reagent were mixed with 50 μl sample solution in a polystyrole 96-well plate and incubated for 15 min in the dark. The absorption was measured at 595 nm against the negative control (50 μl PBS+200 μL Bradford reagent). The protein concentration was calculated from a calibration curve of bovine serum albumin.
The stability against bacterial proteases was determined in a bacterial lysate of E. coli BL21 AI adjusted with PBS to a protein concentration of 0.5 mg/mL. Peptides were dissolved in the bacterial lysate at a final concentration of 150 μg/mL and incubated at 37° C. Aliquots were taken in triplicates after 0, 30, 60, 120, and 240 min and precipitated by addition of trichloroacetic acid to a final concentration of 3% (v/v). After 10 minutes on ice, the samples were centrifuged, the supernatant neutralized with sodium hydroxide solution (1 mol/L) and stored at −20° C. The samples were analyzed by RP-HPLC (Jupiter C18-column) using a linear aqueous acetonitrile or methanol gradient containing 0.1% (v/v) TFA. Metabolites were identified by MALDI-TOF-MS.

K pneumoniae DSM 681 = assay type: cell-based, Klebsiella pneumoniae; conditions: DSM 681, 2 h
Procedure: as §1

in vitro [3] = conditions: mouse
Procedure: as §2

E. coli BL21 AI = experiment: MIC, liquid broth microdilution assay; assay type: cell-based, Escherichia coli; conditions: 1% TSB, 37° C., 20±2 h
Procedure: Minimal inhibitory concentrations were determined in triplicates by a liquid broth microdilution assay in sterile 96-well plates (Greiner Bio-One GmbH, Frickenhausen, Germany) using a total volume of 100 μL per well (Amsterdam, D. Susceptibility testing of antimicrobials in liquid media in Antibiotics in laboratory medicine (ed. Lorian, V.) 52-111 (Lippincott Williams & Wilkins, Baltimore, 1996)). Aqueous peptide solutions (1 mg/mL) were serially two-fold diluted in 1% tryptic soy broth (TSB). A typical dilution series ranged from 128 μg/mL to 0.5 μg/mL in eight steps. Overnight cultures of bacteria were diluted with 1% TSB to 1.5×10^7 cells/mL (Klebsiella pneumoniae DSM 681, Escherichia coli BL21AI and DSM 10233) and 4×10^7 cells/mL (Micrococcus luteus ATCC 10240). Fifty μL of these solutions were added to each well gaining a starting cell concentration of 7.5×10^5 cells/well and 2×10^6 cells/well, respectively. The plates were incubated at 37° C. and the absorbance of each well was measured after 20±2 h at 595 nm.

M. luteus DSM 10240 = assay type: cell-based, Micrococcus luteus; conditions: DSM 10240, 2 h
Procedure: as §1

[4] = full mouse serum (pooled mouse serum, PAA Laboratories); conditions: 37° C., up to 480 min
[5] = bacterial lysate of E. coli BL21 AI; conditions: 37° C., up to 240 min

| Molecule | starting derivative not degraded after 480 min [1] | minimal inhibitory concentration (MIC) E. coli DSM 10233 (E. coli DSM 10233) [µg/mL] | stability relative to the original oncocin sequence (in vitro [2]) | half-life at 150 μg/mL (in vitro [2]; cells or culture medium) [h] | minimal inhibitory concentration (MIC) K pneumoniae DSM 681 (K pneumoniae DSM 681) [µg/mL] | half-life at 75 μg/mL (in vitro [3]; full (pure) pooled mouse serum) [h] | minimal inhibitory concentration (MIC) E. coli BL21 AI (E. coli BL21 AI) [µg/mL] | minimal inhibitory concentration (MIC) E. coli BL21 AI (E. coli BL21 AI; listed as 3) [µg/mL] | minimal inhibitory concentration (MIC) M. luteus DSM 10240 (M. luteus DSM 10240) [µg/mL] | remaining at 8 h, 75 μg/mL (in vitro [3]; full (pure, undiluted) pooled mouse serum) [%] | half-life at 150 μg/mL (in vitro [2]; Escherichia coli) [h] | half-life at 75 μg/mL (in vitro [3]; pure (full) pooled mouse serum) [h] | cleaved bond [4] | cleaved bond [5] |
| --- | --- | --- | --- | --- | --- | --- | --- | --- | --- | --- | --- | --- | --- | --- |
| CC(C)C[C@H](NC(=O)[C@H](Cc1ccc(O)cc1)NC(=O)[C@@H]1CCCN1C(=O)[C@@H]1CCCN1C(=O)[C@H](CCCCN)NC(=O)[C@H](CC(=O)O)NC(=O)[C@@H](N)C(C)C)C(=O)N1CCC[C@H]1C(=O)N[C@@H](CCCNC(=N)N)C(=O)N1CCC[C@H]1C(=O)N[C@@H](CCCNC(=N)N)C(=O)N1CCC[C@H]1C(=O)N1C[C@H](O)C[C@H]1C(=O)N[C@@H](CCCNC(=N)N)C(=O)N1C[C@H](O)C[C@H]1C(=O)N[C@H](C(=O)N[C@@H](Cc1ccc(O)cc1)C(=O)N[C@@H](CC(N)=O)C(=O)N[C@@H](CCCN)C(N)=O)[C@@H](C)O [SEQ ID NO. 3, VDKPPYLPRPRP-4tHyp-R-4tHyp-TYNO-NH2] (HELM PEPTIDE1{V.D.K.P.P.Y.L.P.R.P.R.P.[Hyp].R.[Hyp].T.Y.N.[Orn].[am]}$$$$V2.0; N-terminus assumed) | (60%) | 2 to 4 | at least three times more stable | 4 | 8 (≈ 3.47 µM) | > 8 | 2 to 4 | 4 (≈ 1.73 µM) | 32 (≈ 13.9 µM) |  |  |  |  |  |
| CC(C)C[C@H](NC(=O)[C@H](Cc1ccc(O)cc1)NC(=O)[C@@H]1CCCN1C(=O)[C@@H]1CCCN1C(=O)[C@H](CCCCN)NC(=O)[C@H](CC(=O)O)NC(=O)[C@@H](N)C(C)C)C(=O)N1CCC[C@H]1C(=O)N[C@@H](CCCNC(=N)N)C(=O)N1CCC[C@H]1C(=O)N[C@@H](CCCNC(=N)N)C(=O)N1CCC[C@H]1C(=O)N1CCC[C@H]1C(=O)N[C@@H](CCCNC(=N)N)C(=O)N[C@@H](CCCN)C(=O)N[C@H](C(=O)N[C@@H](Cc1ccc(O)cc1)C(=O)N[C@@H](CC(N)=O)C(=O)N[C@@H](CCCN)C(N)=O)[C@@H](C)O [SEQ ID NO. 2, VDKPPYLPRPRPPROTYNO-NH2] (HELM PEPTIDE1{V.D.K.P.P.Y.L.P.R.P.R.P.P.R.[Orn].T.Y.N.[Orn].[am]}$$$$V2.0; N-terminus assumed) |  |  | at least three times more stable | 2.83 |  | 2 | 4 (≈ 1.74 µM) |  | 8 (≈ 3.49 µM) |  |  |  |  |  |
| CC[C@H](C)[C@H](NC(=O)[C@H](CCCN)NC(=O)[C@H](CCCNC(=N)N)NC(=O)[C@@H]1CCCN1C(=O)[C@@H]1CCCN1C(=O)[C@H](CCCNC(=N)N)NC(=O)[C@@H]1CCCN1C(=O)[C@H](CCCNC(=N)N)NC(=O)[C@@H]1CCCN1C(=O)[C@H](CC(C)C)NC(=O)[C@H](Cc1ccc(O)cc1)NC(=O)[C@@H]1CCCN1C(=O)[C@@H]1CCCN1C(=O)[C@H](CCCCN)NC(=O)[C@H](CC(=O)O)NC(=O)[C@@H](N)C(C)C)C(=O)N[C@@H](Cc1ccc(O)cc1)C(=O)N[C@@H](CC(N)=O)C(=O)N[C@@H](CCCN)C(N)=O [SEQ ID NO. 4, VDKPPYLPRPRPPROIYNO-NH2, reference compound] (HELM PEPTIDE1{V.D.K.P.P.Y.L.P.R.P.R.P.P.R.[Orn].I.Y.N.[Orn].[am]}$$$$V2.0; N-terminus assumed) |  |  |  |  |  | 2.92 | 8 (≈ 3.47 µM) |  | 8 (≈ 3.47 µM) | 60 |  |  |  |  |
| VDKPPYLPRPRPPRRIYNR-NH2 [SEQ ID NO. 1, VDKPPYLPRPRPPRRIYNR-NH2, reference compound] |  | 16 |  |  | 4 |  | 4 |  | 8 |  | 1 | 0.5 |  |  |
| VDKPPYLPRPRPPRRIYNR-NH2 |  |  |  |  |  |  |  |  |  |  |  |  | Arg15-Ile16, major; also recorded: Asn18-Arg19, major | Pro10-Arg11; also recorded: Pro13-Arg14; also recorded: Arg15-Ile16 |
